Experiments:
[1] = human, in vivo, 48 weeks
Excerpt: Subjects with a history of HIV-2, hepatitis B and/or C, cirrhosis of the liver or any known active or chronic active liver disease were excluded from the study.
Most AEs were mild or moderate (Grade 1 or Grade 2). […] None of the Grade ≥3 AEs (preferred terms) were reported in more than 1 subject.

[2] = Study 202: ECG abnormalities and vital signs; type: in vivo, human; conditions: for HR Abnormally high, n subjects / HR Abnormally low, n subjects / PR Abnormally high, n subjects / QRS Abnormally high, n subjects / QRS Abnormally low, n subjects / QTcB interval Borderline (450-480 ms), n subjects / QTcB interval Increase by >30-60 ms, n subjects / QTcB interval Increase by >60 ms, n subjects / QTcB interval Pathologically prolonged, n subjects / QTcB interval Prolonged, n subjects / QTcF interval Borderline (450-480 ms), n subjects / QTcF interval Increase by >30-60 ms, n subjects / QTcF interval Increase by >60 ms, n subjects / QTcF interval Pathologically prolonged, n subjects / QTcF interval Prolonged, n subjects: through Week 48
[3] = All CVC (N = 115), EFV (N = 28)

CCCCOCCOc1ccc(-c2ccc3c(c2)/C=C(/C(=O)Nc2ccc([S@@+]([O-])Cc4cncn4CCC)cc2)CCCN3CC(C)C)cc1 [CVC, (S)-8-[4-(2-Butoxyethoxy)phenyl]-1-isobutyl-N-(4-{[(1-propyl-1H-imidazol-5-yl)methyl]sulfinyl}phenyl)-1,2,3,4-tetrahydro-1-benzazocine-5-carboxamide]
AE leading to discontinuation: Tinnitus, n subjects [1]: 0
Any AE leading to discontinuation of study drug, n subjects [1]: 1
Any AE, n subjects [1]: 99
Any Grade 3 AE, n subjects [1]: 5
Any Grade 4 AE, n subjects [1]: 0
Any SAE, n subjects [1]: 2
Grade 3 or 4 AE: Abdominal pain, n subjects [1]: 1
Grade 3 or 4 AE: Blindness unilateral, n subjects [1]: 1
Grade 3 or 4 AE: Corneal infection, n subjects [1]: 1
Grade 3 or 4 AE: Dermatitis allergic, n subjects [1]: 0
Grade 3 or 4 AE: Eye disorders, n subjects [1]: 1
Grade 3 or 4 AE: Gastrointestinal disorders, n subjects [1]: 1
Grade 3 or 4 AE: General disorders and administration site conditions, n subjects [1]: 1
Grade 3 or 4 AE: Infections and infestations, n subjects [1]: 1
Grade 3 or 4 AE: Pyrexia, n subjects [1]: 1
Grade 3 or 4 AE: Skin and subcutaneous tissue disorders, n subjects [1]: 0
Grade 3 or 4 AE: Tinnitus, n subjects [1]: 0
SAE: Blindness unilateral, n subjects [1]: 1
SAE: Corneal infection, n subjects [1]: 1
SAE: Depression, n subjects [1]: 0
SAE: Eye disorders, n subjects [1]: 1
SAE: Gastroenteritis, n subjects [1]: 1
SAE: Infections and infestations, n subjects [1]: 2
SAE: Psychiatric disorders, n subjects [1]: 0
Subjects who experienced a Grade ≥3 AE [1]: 4%
Subjects with AEs, worst grade severity Grade 4 [1]: 0 n
HR Abnormally high, n subjects [2, 3]: 0
HR Abnormally low, n subjects [2, 3]: 0
PR Abnormally high, n subjects [2, 3]: 3
QRS Abnormally high, n subjects [2, 3]: 1
QRS Abnormally low, n subjects [2, 3]: 0
QTcB interval Borderline (450-480 ms), n subjects [2, 3]: 6
QTcB interval Increase by >30-60 ms, n subjects [2, 3]: 9
QTcB interval Increase by >60 ms, n subjects [2, 3]: 1
QTcB interval Pathologically prolonged, n subjects [2, 3]: 0
QTcB interval Prolonged, n subjects [2, 3]: 0
QTcF interval Borderline (450-480 ms), n subjects [2, 3]: 2
QTcF interval Increase by >30-60 ms, n subjects [2, 3]: 7
QTcF interval Increase by >60 ms, n subjects [2, 3]: 1
QTcF interval Pathologically prolonged, n subjects [2, 3]: 0
QTcF interval Prolonged, n subjects [2, 3]: 0
HR Abnormally high, n subjects ([2]; CVC 100 mg (N = 58)): 0
HR Abnormally low, n subjects ([2]; CVC 100 mg (N = 58)): 0
PR Abnormally high, n subjects ([2]; CVC 100 mg (N = 58)): 2
QRS Abnormally high, n subjects ([2]; CVC 100 mg (N = 58)): 1
QRS Abnormally low, n subjects ([2]; CVC 100 mg (N = 58)): 0
QTcB interval Borderline (450-480 ms), n subjects ([2]; CVC 100 mg (N = 58)): 4
QTcB interval Increase by >30-60 ms, n subjects ([2]; CVC 100 mg (N = 58)): 6
QTcB interval Increase by >60 ms, n subjects ([2]; CVC 100 mg (N = 58)): 1
QTcB interval Pathologically prolonged, n subjects ([2]; CVC 100 mg (N = 58)): 0
QTcB interval Prolonged, n subjects ([2]; CVC 100 mg (N = 58)): 0
QTcF interval Borderline (450-480 ms), n subjects ([2]; CVC 100 mg (N = 58)): 1
QTcF interval Increase by >30-60 ms, n subjects ([2]; CVC 100 mg (N = 58)): 4
QTcF interval Increase by >60 ms, n subjects ([2]; CVC 100 mg (N = 58)): 1
QTcF interval Pathologically prolonged, n subjects ([2]; CVC 100 mg (N = 58)): 0
QTcF interval Prolonged, n subjects ([2]; CVC 100 mg (N = 58)): 0
Subjects with QTc increase of >60 msec ([2]; CVC 100 mg arm): 1 subject
HR Abnormally high, n subjects ([2]; CVC 200 mg (N = 57)): 0
HR Abnormally low, n subjects ([2]; CVC 200 mg (N = 57)): 0
PR Abnormally high, n subjects ([2]; CVC 200 mg (N = 57)): 1 (2%)
QRS Abnormally high, n subjects ([2]; CVC 200 mg (N = 57)): 0
QRS Abnormally low, n subjects ([2]; CVC 200 mg (N = 57)): 0
QTcB interval Borderline (450-480 ms), n subjects ([2]; CVC 200 mg (N = 57)): 2 (4%)
QTcB interval Increase by >30-60 ms, n subjects ([2]; CVC 200 mg (N = 57)): 3 (6%)
QTcB interval Increase by >60 ms, n subjects ([2]; CVC 200 mg (N = 57)): 0
QTcB interval Pathologically prolonged, n subjects ([2]; CVC 200 mg (N = 57)): 0
QTcB interval Prolonged, n subjects ([2]; CVC 200 mg (N = 57)): 0
QTcF interval Borderline (450-480 ms), n subjects ([2]; CVC 200 mg (N = 57)): 1 (2%)
QTcF interval Increase by >30-60 ms, n subjects ([2]; CVC 200 mg (N = 57)): 3 (6%)
QTcF interval Increase by >60 ms, n subjects ([2]; CVC 200 mg (N = 57)): 0
QTcF interval Pathologically prolonged, n subjects ([2]; CVC 200 mg (N = 57)): 0
QTcF interval Prolonged, n subjects ([2]; CVC 200 mg (N = 57)): 0
